Source: patent US6630316B1, “Method for measurement of lymphocyte function” (priority 1996, dated 2003)

Assays:
Format in all cases: cell-based
[1] = test system: CD4 positive T lymphocytes; assay: ATP (luciferin:luciferase) response of PBMC separated using CD4 antibody and goat anti-mouse paramagnetic beads; details: PHA 1 ug/ml, 24 hours, CD4 separation, unstimulated 8768
[2] = test system: CD8 positive T lymphocytes
[3] = test system: T lymphocytes separated by CD4, CD69, or CD3; assay: ATP response after PHA stimulation of T lymphocytes separated by CD4, CD69 or CD3; details: PHA (1%) for 24, 48, 72 or 96 hours; separation by CD3, CD4 or CD69
[4] = test system: T lymphocytes (CD4) in whole blood; assay: T cell response to mitogens in a whole blood sample (CD4 separation, ATP luminescence); details: whole blood diluted 1:5, incubated overnight at 37 C; PHA at 1%, IL-2 at 1000 U/ml; control 458,451

Substance: phytohemagglutinin [PHA]
- Relative Light Units [1]: 38903 Relative Light Units
- stimulation index [2]: > 10
- relative light units from stimulated cells versus unstimulated cells [3]: greater than those from the unstimulated cells
- Relative Light Units [4]: 5,836,682 Relative Light Units
